# Measured values published in ChEMBL document CHEMBL5727966, “Compositions and methods for treating disorders of circadian and diurnal rhythms using prokineticin 2 agonists and antagonists” (2020).
# Test: Aequorin-Based Luminescent Assay : An aequorin-based luminescent assay for calcium mobilization was used to measure mobilization of intracellular Ca2+ (Bullock et al., Mol Pharmacol 65, 582-588, 2004). Chinese hamster ovary (CHO) cells stably expressing photoprotein aequorin and recombinant PKR1 or PKR2 were tested by this method. Briefly, the cells were charged in Opti-MEM™ (Invitrogen) containing 8 μM of coelenterazine cp at 37° C. for 2 hours. Cells were detached by brief trypsinization and maintained in Hank's Balanced Salt Solution (HBSS) plus 10 mM HEPES (pH7.5) and 0.1% BSA at about 5×10^5 cells/ml. Luminescence measurements were made using a Berthold luminometer.All compounds were diluted in HBSS plus 10 mM HEPES (pH7.5) and 0.1% BSA. To test the agonist activity, 100 μl of cells were injected into the tubes with 20 μl of compounds. For antagonist assays, 80 μl cells were incubated in the tubes with 20 μl different concentrations of antagonists at room temperature for 20 minutes, and then 100 μl of recombinant PK2 were injected. The IC50 obtained from the assays were then converted to Ki values using the formula: IC50/(1+[PK2]/EC50PK2).
# Assay type: cell-based
compound,measurement,value
CC(C)CN(Cc1cc(Cl)c2c(c1)OCCCO2)C(=O)C1CN(Cc2cccc3nc[nH]c23)CCO1 (stereo unspecified),Ki,8.4 nM
